{"source": "patent US11946027B2", "about": "“Systems and methods for monitoring behavior of cells and/or tissues in culturing media” (Purdue Research Foundation, priority 2019, dated 2024)", "key": {"[1]": {"tested_on": "cardiomyocytes", "assay": "ECG recording of cardiomyocytes on the scaffold in response to norepinephrine", "format": "cell-based, neonatal mice", "details": "cardiomyocytes at day 8", "excerpt": "The beating rate decreased from 288 bpm to 60 bpm and to 36 bpm, whereas the amplitude increased from 66 μV to 83 μV and to 511 μV at day 2, 6, and 8, respectively. The results imply that spontaneous contractions of the individual cells initially occurred, followed by stronger and more synchronized contractions as the cells become more in contact each other. […] A representative microscopy image in FIG. 4C highlights the embedded four-channel-multiplexed sensing electrodes with the cardiomyocytes at day 8 within the domain of 1.4×1.4 mm^2. The results in FIG. 4D indicate the synchronized beating rate (about 0.63 Hz), amplitude (638˜763 μV), and peak width (˜about 0.6 sec). 3D mapping results of the action potentials (FIG. 4E) obtained from the total 48 ECG sensors (4×4 array in each layer) reveal the spontaneous beating activities of the cardiomyocytes at day 2, 6, and 8 without showing any toxic effect.\nFor cardiomyocyte isolation, primary neonatal mice cardiomyocytes were prepared according to the Pierce Primary Cardiomyocyte Isolation Kit (Thermo Scientific, USA). Briefly, neonatal hearts were isolated from about 1 to 3 days old neonatal mice and placed into separate sterile microcentrifuge tubes containing 500 μL of ice cold Hank's Balanced Salt Solution (HBSS). […]"}, "[2]": {"tested_on": "MCF7 cells", "assay": "Impedimetric cytotoxicity of MCF7 cells on the scaffold system with Dox", "format": "cell-based", "details": "30 kHz", "experimental": "The scaffold system remained afloat on the medium, wherein the recording electrodes were entirely surrounded with polyimide elastomers. The flexible conductors were ACF cables (HST-9805-210, Elform, Inc., USA) placed on the sponge-like PDMS buoyant member and wired to an external data acquisition system (E4980AL Precision LCR meter, Keysight Technologies, USA) through the air. […] From about 16 hours later, drastic increase of the impedance occurred due to the cell aggregation and continuous proliferation. This tendency was more obvious in the MCF7 cells because the population doubling time of MCF7 cells (about 29 hours) is shorter than that of SKOV3 cells (about 48 hours) and HUVEC cells (about 60 hours). Consistently, the impedance of the MCF7 cells increased proportionally to the cellular density (FIG. 3C).\n(§1) The impedance was measured by using an LCR meter (Agilent 4294A, USA) with the voltage (between two adjacent recording electrodes) of about 1 mV for 48 hours at the frequencies of 1, 5, 10, 20, 30, 50, 100, 150, 200 and 250 kHz. The scaffold system was placed in the incubator (5% CO^2, 37° C.; Thermo Scientific, USA) and wired to the LCR meter located outside of the incubator via flexible ACF cables. The data was collected every 2 hours from the scaffold system."}, "[3]": {"tested_on": "MCF7 cells", "assay": "Real-time impedance monitoring in three-layer stacked scaffold seeded with MCF7 cells, Dox introduced on the top", "format": "cell-based", "details": "1 mM Dox introduced on the top at 1-day incubation", "experimental": "In this configuration, each layer of the scaffold system remains spaced apart a fixed distance of about 5 mm along the perimeter by using spacers made of PDMS.\nas §1"}, "[4]": {"details": "hydrophilic and water-soluble; Doxorubicin Hydrochloride, Fisher; cited from earlier work"}}, "data": [{"smiles": "NC[C@H](O)c1ccc(O)c(O)c1", "note": "[norepinephrine]", "values": [{"measurement": "increase of beating rate", "setting": "[1]; addition of 100 μL of norepinephrine (bitartrate solution 10 μM) into the medium", "result": "nearly two-fold"}, {"measurement": "time after NE administration to increase of beating rate", "setting": "[1]; addition of 100 μL of norepinephrine into the medium", "result": "≤ 3", "unit": "min"}]}, {"smiles": "COc1cccc2c1C(=O)c1c(O)c3c(c(O)c1C2=O)C[C@@](O)(C(=O)CO)C[C@@H]3O[C@H]1C[C@H](N)[C@H](O)[C@H](C)O1", "note": "[Dox, doxorubicin]", "values": [{"measurement": "time after drug administration at which impedance started to decrease", "setting": "[2]; 100 μM Dox introduced at 1-day incubation", "result": "≤ 4", "unit": "h"}, {"measurement": "decrease of the impedance", "setting": "[2]; low drug administration 10 μM", "result": "no substantial decrease of the impedance"}, {"measurement": "rate of impedance decrease following drug administration, bottom layer", "setting": "[3]; bottom scaffold layer", "result": "about 1.6 Ω/hr"}, {"measurement": "rate of impedance decrease following drug administration, middle layer", "setting": "[3]; middle scaffold layer", "result": "about 5.4 Ω/hr"}, {"measurement": "solubility", "setting": "[4]", "result": "about 50 mg/ml"}]}]}
